The record followed here is paper PMC10629462 (Molecular cell, 2023).

In data set [1] the target is CtSen1^FL (Thermochaetoides thermophila, UniProt G0S163). Put plainly: malachite green phosphate release ATPase assay. The data set is classed as biochemical. To be noted: 1 mM ATP, 2 mM MgCl2, pH 7.5, 37 °C, RNA-DNA Sub6 5 μM, 5 nM enzyme.
Data set [2] concerns the target T1, CtSen1Hel-1878 (Chaetomium thermophilum, UniProt G0S163 1087-1878).
T1 sequence: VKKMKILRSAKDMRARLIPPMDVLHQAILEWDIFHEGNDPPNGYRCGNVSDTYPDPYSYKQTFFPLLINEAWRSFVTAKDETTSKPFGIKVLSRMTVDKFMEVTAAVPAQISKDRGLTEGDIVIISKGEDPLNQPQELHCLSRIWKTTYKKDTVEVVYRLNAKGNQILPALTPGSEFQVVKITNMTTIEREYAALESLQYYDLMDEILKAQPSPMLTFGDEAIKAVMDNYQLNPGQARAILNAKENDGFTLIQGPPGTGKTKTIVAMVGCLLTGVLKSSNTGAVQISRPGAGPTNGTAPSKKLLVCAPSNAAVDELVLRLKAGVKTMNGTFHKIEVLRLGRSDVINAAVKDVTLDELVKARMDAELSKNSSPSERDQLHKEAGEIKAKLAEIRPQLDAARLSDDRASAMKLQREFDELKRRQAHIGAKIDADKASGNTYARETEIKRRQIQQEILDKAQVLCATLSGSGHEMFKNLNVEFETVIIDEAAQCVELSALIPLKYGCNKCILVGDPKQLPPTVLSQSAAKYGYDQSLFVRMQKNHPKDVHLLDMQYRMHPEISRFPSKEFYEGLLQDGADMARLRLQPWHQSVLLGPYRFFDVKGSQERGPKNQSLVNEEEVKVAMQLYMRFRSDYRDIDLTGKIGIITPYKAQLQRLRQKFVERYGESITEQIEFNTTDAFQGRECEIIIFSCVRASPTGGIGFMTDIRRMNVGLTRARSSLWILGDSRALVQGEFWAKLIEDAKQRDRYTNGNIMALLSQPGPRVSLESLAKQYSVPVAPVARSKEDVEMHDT
As to the kind of experiment: X-ray crystallography.

Sequence of CtSen1^FL (G0S163 1-1993): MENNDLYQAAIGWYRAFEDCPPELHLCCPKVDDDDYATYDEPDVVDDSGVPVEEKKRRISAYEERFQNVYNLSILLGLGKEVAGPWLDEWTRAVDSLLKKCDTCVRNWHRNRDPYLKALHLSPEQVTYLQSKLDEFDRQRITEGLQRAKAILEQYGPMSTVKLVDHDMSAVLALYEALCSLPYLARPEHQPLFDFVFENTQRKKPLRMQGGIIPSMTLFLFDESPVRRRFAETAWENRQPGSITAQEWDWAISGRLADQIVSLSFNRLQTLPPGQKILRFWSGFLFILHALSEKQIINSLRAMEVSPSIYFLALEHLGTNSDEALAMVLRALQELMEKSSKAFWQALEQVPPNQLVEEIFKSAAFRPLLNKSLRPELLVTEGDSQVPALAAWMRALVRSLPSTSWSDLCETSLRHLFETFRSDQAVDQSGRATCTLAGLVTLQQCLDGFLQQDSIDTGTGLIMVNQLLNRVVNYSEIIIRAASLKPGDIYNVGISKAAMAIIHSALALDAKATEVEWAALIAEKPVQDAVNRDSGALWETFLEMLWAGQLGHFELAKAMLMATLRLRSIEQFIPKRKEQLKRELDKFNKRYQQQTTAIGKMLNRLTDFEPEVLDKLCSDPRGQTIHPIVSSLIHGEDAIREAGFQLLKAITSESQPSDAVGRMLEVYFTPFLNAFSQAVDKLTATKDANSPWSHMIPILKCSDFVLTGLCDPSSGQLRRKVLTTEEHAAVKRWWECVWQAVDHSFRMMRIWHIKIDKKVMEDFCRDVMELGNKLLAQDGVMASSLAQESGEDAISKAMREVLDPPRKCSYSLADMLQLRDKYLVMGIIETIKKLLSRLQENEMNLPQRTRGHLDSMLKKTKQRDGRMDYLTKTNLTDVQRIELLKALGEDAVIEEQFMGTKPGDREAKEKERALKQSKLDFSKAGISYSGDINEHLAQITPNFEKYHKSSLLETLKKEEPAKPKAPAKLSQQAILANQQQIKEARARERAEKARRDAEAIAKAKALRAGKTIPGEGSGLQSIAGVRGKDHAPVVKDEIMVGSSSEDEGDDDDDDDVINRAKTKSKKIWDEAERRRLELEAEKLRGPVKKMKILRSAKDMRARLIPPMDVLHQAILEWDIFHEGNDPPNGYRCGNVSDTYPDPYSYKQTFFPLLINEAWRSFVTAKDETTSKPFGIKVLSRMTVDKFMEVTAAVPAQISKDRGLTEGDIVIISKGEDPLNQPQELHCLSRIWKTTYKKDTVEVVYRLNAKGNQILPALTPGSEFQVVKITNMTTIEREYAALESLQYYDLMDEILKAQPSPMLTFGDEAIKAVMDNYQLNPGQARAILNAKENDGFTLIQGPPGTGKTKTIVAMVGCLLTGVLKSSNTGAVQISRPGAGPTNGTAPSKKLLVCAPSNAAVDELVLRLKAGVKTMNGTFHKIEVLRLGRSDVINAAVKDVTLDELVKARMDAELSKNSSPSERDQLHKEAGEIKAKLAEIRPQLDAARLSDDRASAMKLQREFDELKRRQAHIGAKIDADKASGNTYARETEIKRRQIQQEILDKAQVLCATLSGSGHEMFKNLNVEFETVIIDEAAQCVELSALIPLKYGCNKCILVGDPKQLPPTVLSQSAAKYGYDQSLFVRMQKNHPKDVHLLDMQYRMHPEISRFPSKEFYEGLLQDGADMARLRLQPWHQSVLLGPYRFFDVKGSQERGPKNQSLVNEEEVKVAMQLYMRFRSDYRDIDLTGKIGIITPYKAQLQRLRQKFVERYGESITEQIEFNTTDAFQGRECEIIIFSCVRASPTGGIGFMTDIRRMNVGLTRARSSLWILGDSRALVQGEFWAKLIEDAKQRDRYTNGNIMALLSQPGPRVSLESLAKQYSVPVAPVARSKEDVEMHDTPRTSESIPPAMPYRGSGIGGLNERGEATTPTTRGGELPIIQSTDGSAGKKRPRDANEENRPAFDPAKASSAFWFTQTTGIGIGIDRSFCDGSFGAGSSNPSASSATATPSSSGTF

With `Nc1ncnc2c1ncn2[C@@H]1O[C@H](COP(=O)(O)OP(=O)(O)OP(=O)(O)O)[C@@H](O)[C@H]1O` [ATP], the “malachite green phosphate release ATPase assay” value in data set [1] is “Substrate stimulated ATP hydrolysis of mutant Sen1 proteins was monitored in a phosphate release assay”. Consider UUUUUUUUUUUUUUU (ssRNA) [poly-U 15 nt], for which the binding result in data set [2] is on record as “binds”.
